From article PMC12968138, “CreSAMT1 is mainly responsible for the biosynthesis of characteristic aroma compound dimethyl anthranilate in Citrus reticulata ‘Chachiensis’” (Horticulture Research, 2025)

Tests used:
CreSAMT1 = tested on: T1, CreSAMT1; test: GC-MS of methyl ester product, Michaelis-Menten fit; format: biochemical, Citrus reticulata; details: co-substrate SAM, Tris-HCl, KCl, pH 7.0, 35 °C
T1 construct: His-tagged (pET6xHN), E. coli BL21(DE3), Ni-IDA purified; tag cleavage not mentioned
Text: GC-MS of methyl ester product, Michaelis-Menten fit on CreSAMT1

CreSAMT2 = tested on: T2, CreSAMT2; test: as above; format: biochemical, Citrus reticulata; details: co-substrate SAM, Tris-HCl, KCl, pH 7.0, 25 °C
T2 construct: His-tagged (pET6xHN), E. coli BL21(DE3), Ni-IDA purified; tag cleavage not mentioned
Text: GC-MS of methyl ester product, Michaelis-Menten fit on CreSAMT2

Row | Km (CreSAMT1) | Km (CreSAMT2) | SMILES | Km (CreSAMT1; sodium salt used) | Km (CreSAMT2; sodium salt used)
1 | 61.9 ± 30.7 µM | 25 ± 6.89 µM | O=C(O)c1ccccc1 [BA, benzoic acid] |  | 
2 | 101 ± 33.5 µM | 53 ± 11.2 µM | O=C(O)c1ccccc1O [SA, salicylic acid] |  | 
3 |  |  | Nc1ccccc1C(=O)O [AA, anthranilate] | 4.82 ± 1.53 µM | 18 ± 1.9 µM

Row | SMILES | Km (CreSAMT1) | Km (CreSAMT2) | Km (CreSAMT1; sodium salt used) | Km (CreSAMT2; sodium salt used)
4 | CNc1ccccc1C(=O)O [NMA, N-methyl-2-aminobenzoic acid] | 164 ± 98.4 µM | 128 ± 58.9 µM |  | 
